According to US20230284620A1, “MIXTURES OF PYRIDAZINES AS HERBICIDAL COMPOSITIONS” (SYNGENTA CROP PROTECTION AG, priority 2020, published 2023):

Columns and labels:
Assay in all cases: Post-emergence glasshouse herbicide test, visual phytotoxicity
Assay type in all cases: in vivo
Details in all cases: 13 days
[1] = system: Echinochloa crus-galli (ECHCG)
Experimental: (§1) Seeds of Setaria faberi (SETFA), Echinochloa crus-galli (ECHCG), Digitaria sanguinalis (DIGSA), Lolium perenne (LOLPE), Alopecurus myosuroides (ALOMY), Chenopodium album (CHEAL), Ipomoea hederacea (IPOHE), Stellaria media (STEME), Abutilon threophrasti (ABUTH) and Amaranthus retroflexus (AMARE) were sown in standard sterilised soil in pots. After cultivation for 8 days under controlled conditions in a glasshouse (at 24/19° C., day/night; 16 hours light; no humidity control), the plants were sprayed at 500 l/Ha with an aqueous spray solution derived from the formulation of the technical active ingredients in a small amount of acetone and a solvent and emulsifier mixture referred to as IF50 (11.12% Emulsogen EL360 TM+44.44% N-methylpyrrolidone+44.44% Dowanol DPM glycol ether), to create a 50 g/l solution which was then diluted using 0.2% Genapol X080 (CAS Number: 9043-30-5) as diluent to give the desired final dose of test compound.
(§2) Where active ingredients were applied as mixtures, aqueous spray solutions were prepared as above, containing both active ingredients.
(§3) The test plants were then grown under controlled conditions in a glasshouse (at 24/18° C., day/night; 15 hours light; 50% humidity) and watered twice daily. After 13 days, the test was evaluated visually for percentage phytotoxicity to the plants (where 100=total damage to plant; 0=no damage to plant; and NC=not captured) when compared to control untreated plants. Two to four replicates were applied for each treatment in a randomised block test design.
(§4) 22., E=X+Y−(X*Y/100), where • X=average percent phytotoxicity of herbicide A when applied at a certain rate • Y=average percent phytotoxicity using herbicide B when applied at a certain rate • E=the expected effect of the mixture of herbicides A and B as calculated from the Colby formula.

Setaria faberi (SETFA) = system: Setaria faberi (SETFA)
Experimental: as §1, §2, §3, §4

[2] = system: Alopecurus myosuroides (ALOMY)
Experimental: as §1, §2, §3, §4

[3] = system: Abutilon threophrasti (ABUTH)
Experimental: as §1, §2, §3, §4

Lolium perenne (LOLPE) = system: Lolium perenne (LOLPE)
Experimental: as §1, §2, §3, §4

Stellaria media (STEME) = system: Stellaria media (STEME)
Experimental: as §1, §2, §3, §4

[4] = system: Amaranthus retroflexus (AMARE)
Experimental: as §1, §2, §3, §4

[5] = system: Ipomoea hederacea (IPOHE)
Experimental: as §1, §2, §3, §4

[6] = system: Digitaria sanguinalis (DIGSA)
Experimental: as §1, §2, §3, §4

[7] = system: Chenopodium album (CHEAL)
Experimental: as §1, §2, §3, §4

Nc1c(F)c(-c2ccc3cc[nH]c3c2F)nc(C(=O)O)c1Cl [B-VI]
percentage phytotoxicity ECHCG ([1]; 0.625 g/ha): 0%
percentage phytotoxicity ECHCG ([1]; 1.25 g/ha): 0%
percentage phytotoxicity ECHCG ([1]; 2.5 g/ha): 25%
percentage phytotoxicity ECHCG ([1]; 5 g/ha): 10%
percentage phytotoxicity ECHCG ([1]; 10 g/ha): 53%
percentage phytotoxicity SETFA (Setaria faberi (SETFA); 0.625 g/ha): 0%
percentage phytotoxicity SETFA (Setaria faberi (SETFA); 1.25 g/ha): 0%
percentage phytotoxicity SETFA (Setaria faberi (SETFA); 2.5 g/ha): 5%
percentage phytotoxicity SETFA (Setaria faberi (SETFA); 5 g/ha): 2%
percentage phytotoxicity SETFA (Setaria faberi (SETFA); 10 g/ha): 40%
percentage phytotoxicity ALOMY ([2]; 0.625 g/ha): 0%
percentage phytotoxicity ALOMY ([2]; 1.25 g/ha): 0%
percentage phytotoxicity ALOMY ([2]; 2.5 g/ha): 10%
percentage phytotoxicity ALOMY ([2]; 5 g/ha): 8%
percentage phytotoxicity ALOMY ([2]; 10 g/ha): 25%
percentage phytotoxicity ABUTH ([3]; 0.625 g/ha): 48%
percentage phytotoxicity ABUTH ([3]; 1.25 g/ha): 70%
percentage phytotoxicity ABUTH ([3]; 2.5 g/ha): 78%
percentage phytotoxicity ABUTH ([3]; 5 g/ha): 80%
percentage phytotoxicity ABUTH ([3]; 10 g/ha): 93%
percentage phytotoxicity LOLPE (Lolium perenne (LOLPE); 0.625 g/ha): 0%
percentage phytotoxicity LOLPE (Lolium perenne (LOLPE); 1.25 g/ha): 0%
percentage phytotoxicity LOLPE (Lolium perenne (LOLPE); 2.5 g/ha): 5%
percentage phytotoxicity LOLPE (Lolium perenne (LOLPE); 5 g/ha): 5%
percentage phytotoxicity LOLPE (Lolium perenne (LOLPE); 10 g/ha): 25%
percentage phytotoxicity STEME (Stellaria media (STEME); 0.625 g/ha): 65%
percentage phytotoxicity STEME (Stellaria media (STEME); 1.25 g/ha): 75%
percentage phytotoxicity STEME (Stellaria media (STEME); 2.5 g/ha): 90%
percentage phytotoxicity STEME (Stellaria media (STEME); 5 g/ha): 93%
percentage phytotoxicity STEME (Stellaria media (STEME); 10 g/ha): 99%
percentage phytotoxicity AMARE ([4]; 0.625 g/ha): 83%
percentage phytotoxicity AMARE ([4]; 1.25 g/ha): 83%
percentage phytotoxicity AMARE ([4]; 2.5 g/ha): 90%
percentage phytotoxicity AMARE ([4]; 5 g/ha): 98%
percentage phytotoxicity AMARE ([4]; 10 g/ha): 100%
percentage phytotoxicity IPOHE ([5]; 0.625 g/ha): 25%
percentage phytotoxicity IPOHE ([5]; 1.25 g/ha): 35%
percentage phytotoxicity IPOHE ([5]; 2.5 g/ha): 38%
percentage phytotoxicity IPOHE ([5]; 5 g/ha): 48%
percentage phytotoxicity IPOHE ([5]; 10 g/ha): 65%
percentage phytotoxicity DIGSA ([6]; 0.625 g/ha): 0%
percentage phytotoxicity DIGSA ([6]; 1.25 g/ha): 0%
percentage phytotoxicity DIGSA ([6]; 2.5 g/ha): 13%
percentage phytotoxicity DIGSA ([6]; 5 g/ha): 15%
percentage phytotoxicity DIGSA ([6]; 10 g/ha): 43%
percentage phytotoxicity CHEAL ([7]; 0.625 g/ha): 75%
percentage phytotoxicity CHEAL ([7]; 1.25 g/ha): 80%
percentage phytotoxicity CHEAL ([7]; 2.5 g/ha): 83%
percentage phytotoxicity CHEAL ([7]; 5 g/ha): 94%
percentage phytotoxicity CHEAL ([7]; 10 g/ha): 98%

COc1c(Cl)ccc(-c2nc(C(=O)OCc3ccccc3)c(Cl)c(N)c2F)c1F [B-I]
percentage phytotoxicity ECHCG ([1]; 0.625 g/ha): 0%
percentage phytotoxicity ECHCG ([1]; 1.25 g/ha): 8%
percentage phytotoxicity ECHCG ([1]; 2.5 g/ha): 0%
percentage phytotoxicity ECHCG ([1]; 5 g/ha): 0%
percentage phytotoxicity ECHCG ([1]; 10 g/ha): 10%
percentage phytotoxicity SETFA (Setaria faberi (SETFA); 0.625 g/ha): 0%
percentage phytotoxicity SETFA (Setaria faberi (SETFA); 1.25 g/ha): 5%
percentage phytotoxicity SETFA (Setaria faberi (SETFA); 2.5 g/ha): 0%
percentage phytotoxicity SETFA (Setaria faberi (SETFA); 5 g/ha): 0%
percentage phytotoxicity SETFA (Setaria faberi (SETFA); 10 g/ha): 5%
percentage phytotoxicity ALOMY ([2]; 0.625 g/ha): 0%
percentage phytotoxicity ALOMY ([2]; 1.25 g/ha): 0%
percentage phytotoxicity ALOMY ([2]; 2.5 g/ha): 0%
percentage phytotoxicity ALOMY ([2]; 5 g/ha): 0%
percentage phytotoxicity ALOMY ([2]; 10 g/ha): 5%
percentage phytotoxicity ABUTH ([3]; 0.625 g/ha): 78%
percentage phytotoxicity ABUTH ([3]; 1.25 g/ha): 80%
percentage phytotoxicity ABUTH ([3]; 2.5 g/ha): 83%
percentage phytotoxicity ABUTH ([3]; 5 g/ha): 90%
percentage phytotoxicity ABUTH ([3]; 10 g/ha): 85%
percentage phytotoxicity LOLPE (Lolium perenne (LOLPE); 0.625 g/ha): 0%
percentage phytotoxicity LOLPE (Lolium perenne (LOLPE); 1.25 g/ha): 10%
percentage phytotoxicity LOLPE (Lolium perenne (LOLPE); 2.5 g/ha): 0%
percentage phytotoxicity LOLPE (Lolium perenne (LOLPE); 5 g/ha): 0%
percentage phytotoxicity LOLPE (Lolium perenne (LOLPE); 10 g/ha): 0%
percentage phytotoxicity STEME (Stellaria media (STEME); 0.625 g/ha): 63%
percentage phytotoxicity STEME (Stellaria media (STEME); 1.25 g/ha): 65%
percentage phytotoxicity STEME (Stellaria media (STEME); 2.5 g/ha): 80%
percentage phytotoxicity STEME (Stellaria media (STEME); 5 g/ha): 85%
percentage phytotoxicity STEME (Stellaria media (STEME); 10 g/ha): 90%
percentage phytotoxicity AMARE ([4]; 0.625 g/ha): 63%
percentage phytotoxicity AMARE ([4]; 1.25 g/ha): 70%
percentage phytotoxicity AMARE ([4]; 2.5 g/ha): 80%
percentage phytotoxicity AMARE ([4]; 5 g/ha): 80%
percentage phytotoxicity AMARE ([4]; 10 g/ha): 93%
percentage phytotoxicity IPOHE ([5]; 0.625 g/ha): 53%
percentage phytotoxicity IPOHE ([5]; 1.25 g/ha): 58%
percentage phytotoxicity IPOHE ([5]; 2.5 g/ha): 58%
percentage phytotoxicity IPOHE ([5]; 5 g/ha): 63%
percentage phytotoxicity IPOHE ([5]; 10 g/ha): 75%
percentage phytotoxicity DIGSA ([6]; 0.625 g/ha): 0%
percentage phytotoxicity DIGSA ([6]; 1.25 g/ha): 8%
percentage phytotoxicity DIGSA ([6]; 2.5 g/ha): 0%
percentage phytotoxicity DIGSA ([6]; 5 g/ha): 0%
percentage phytotoxicity DIGSA ([6]; 10 g/ha): 0%
percentage phytotoxicity CHEAL ([7]; 0.625 g/ha): 85%
percentage phytotoxicity CHEAL ([7]; 1.25 g/ha): 73%
percentage phytotoxicity CHEAL ([7]; 2.5 g/ha): 83%
percentage phytotoxicity CHEAL ([7]; 5 g/ha): 91%
percentage phytotoxicity CHEAL ([7]; 10 g/ha): 93%
